# From US5095139A (Ciba-Geigy Corporation, priority 1986, dated 1992)
# Tests used:
# [1] = tested on: pronase from Streptomyces griseus; experiment: pronase treatment
# Procedure: The enzymatic hydrolysis of rhizocticine B (L-Val-L-Arg-L-APPA) to rhizocticine A with removal of valine is effected with pronase from Streptomyces griseus, a peptidase of low specificity. The enzymatic degradation of L-Val-L-Arg-L-APPA is effected quantitatively within a few minutes (approximately 15 minutes), the antifungal activity being obtained. By removing the N-terminal amino acid valine, rhizocticine A is formed. The hydrolysis is confirmed by thin-layer chromatography and ion-exchanger/amino acid analysis.
# solubility = assay type: physicochemical
# Candida albicans = settings: cited from earlier work
# hyphal fungi = settings: cited from earlier work
# Saccharomyces cerevisiae = settings: cited from earlier work
# pronase = pronase from Streptomyces griseus; settings: up to 12 hours
# thermolysin = thermolysin (2 mg/ml) in 0.05N N-ethylmorpholinium acetate, 0.01 M CaCl2 ×6H2 O (pH 7.8); settings: 41° C., up to 30 hours
# fungi = experiment: antifungal activity of isolated tripeptides; assay type: cell-based; settings: isolated by HPLC from rhizocticine B isolates
Compound,Solubility (solubility; 35% ethanol),Solubility (solubility; apolar solvents),Solubility (solubility; ethanol and higher alcohols),Solubility (solubility; water),also measured
"N=C(N)NCCC[C@H](N)C(=O)N[C@@H](/C=C\CP(=O)(O)O)C(=O)O [rhizocticine A, L-Arg-L-APPA]",readily soluble,insoluble,moderately soluble,readily soluble,loss of activity of the dipeptide formed ([1]; after 12 hours of pronase treatment): no loss of activity; behaviour during the pronase treatment ([1]; native compound): remains inert
"C[C@H](N)C(=O)N[C@@H](C[C@@H]1CCC(=O)[C@@H]2O[C@H]12)C(=O)O [Bacilysin, N-alanyl-3-(2,3-epoxycyclohexanon-4-yl)-alanine]",–,–,–,–,inhibition (Candida albicans): inhibits; action (hyphal fungi): virtually no action; inhibition (Saccharomyces cerevisiae): inhibits
L-Val-L-Arg-L-APPA,–,–,–,–,"cleaved bond (pronase): L-Val-L-Arg, approximately 15 minutes"
L-Arg-L-APPA,–,–,–,–,cleaved bond (thermolysin): L-Arg-L-APPA; not cleaved (pronase): remains inert during the pronase treatment
"N[C@@H](/C=C\CP(=O)(O)O)C(=O)O (stereo in doubt) [L-APPA, L-2-amino-5-phosphono-3-cis-pentenoic acid]",readily soluble,insoluble,moderately soluble,readily soluble,–
"CC(C)C[C@H](N)C(=O)N[C@@H](CCCNC(=N)N)C(=O)N[C@@H](/C=C\CP(=O)(O)O)C(=O)O [rhizocticine D, L-Leu-L-Arg-L-APPA]",–,–,–,–,antifungal activity (fungi): antifungal
"CC(C)[C@H](N)C(=O)N[C@@H](CCCNC(=N)N)C(=O)N[C@@H](/C=C\CP(=O)(O)O)C(=O)O [rhizocticine B, L-Val-L-Arg-L-APPA]",readily soluble,insoluble,moderately soluble,readily soluble,time for quantitative enzymatic degradation (removal of N-terminal valine) ([1]; pronase): approximately 15 minutes
"CC[C@H](C)[C@H](N)C(=O)N[C@@H](CCCNC(=N)N)C(=O)N[C@@H](/C=C\CP(=O)(O)O)C(=O)O [rhizocticine C, L-Ile-L-Arg-L-APPA]",–,–,–,–,antifungal activity (fungi): antifungal
